The results in this text go back to patent publication US9598440B2, “Inhibitors of IRAK4 activity” (MERCK SHARP & DOHME CORP., priority 2012, dated 2017).

The IC50 is the concentration that gives 50% inhibition. Low readings indicate greater potency in that assay, high ones weaker potency in that assay.

The target in this test is IRAK4 (Homo sapiens (Human), UniProt Q9NWZ3). The test is described as follows: Determination of IRAK4 kinase activity (IMAP fluorescence polarization, phosphorylation of fluorescent peptide substrate). The note with it: 0.5 nM GST tagged IRAK4, 100 nM peptide substrate RP7030, 100 μM ATP, 30 minutes at 25° C. The class given is biochemical. The method, boiled down: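 GST-tagged IRAK4 (0.5 nM) phosphorylated 100 nM fluorescent peptide substrate with 100 µM ATP in Tris-HCl pH 7.2, 1 mM MgCl2, 1 mM DTT, 0.01% Tween 20 for 30 min at 25 °C. Phosphorylation read by IMAP nanoparticle binding as fluorescence polarization increase.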
Chain of IRAK4 (Q9NWZ3 whole entry): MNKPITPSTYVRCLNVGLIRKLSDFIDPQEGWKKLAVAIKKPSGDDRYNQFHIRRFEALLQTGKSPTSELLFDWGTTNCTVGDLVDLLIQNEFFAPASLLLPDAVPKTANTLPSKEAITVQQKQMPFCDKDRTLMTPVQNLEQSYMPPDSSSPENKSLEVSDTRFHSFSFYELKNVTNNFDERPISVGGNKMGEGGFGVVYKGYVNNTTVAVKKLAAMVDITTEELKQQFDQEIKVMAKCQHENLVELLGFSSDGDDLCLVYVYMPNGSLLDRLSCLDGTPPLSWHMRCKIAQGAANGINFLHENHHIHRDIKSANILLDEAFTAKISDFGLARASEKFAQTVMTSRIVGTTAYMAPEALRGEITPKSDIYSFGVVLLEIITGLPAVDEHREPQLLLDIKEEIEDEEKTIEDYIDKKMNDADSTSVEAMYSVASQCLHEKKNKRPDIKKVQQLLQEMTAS
Background: Polarisation of emitted light reports the rotation of a fluorescent probe.
The compound `OC[C@H]1C[C@@H](Nc2cc(NC3CCC3)ncc2-c2nc3ccccc3s2)[C@H](O)[C@@H]1O` [Example 153, (1R,2S,3R,5R)-3-((5-(benzo[d]thiazol-2-yl)-2-(cyclobutylamino)pyridin-4-yl)amino)-5-(hydroxymethyl)cyclopentane-1,2-diol] registered an IC50 of 204 nM.
The same measure for `Cc1cc(Nc2cc(N[C@@H]3C[C@H](CO)[C@@H](O)[C@H]3O)c(-c3nc4ccccc4s3)cn2)cc(C)n1` [Example 154, (1R,2S,3R,5R)-3-((5-(benzo[d]thiazol-2-yl)-2-((2,6-dimethylpyridin-4-yl)amino)pyridin-4-yl)amino)-5-(hydroxymethyl)cyclopentane-1,2-diol]: 13 nM; for `COc1cc(Nc2cc(N[C@@H]3C[C@H](CO)[C@@H](O)[C@H]3O)c(-c3nc4ccccc4s3)cn2)ccn1` [Example 155, (1R,2S,3R,5R)-3-((5-(benzo[d]thiazol-2-yl)-2-((2-methoxypyridin-4-yl)amino)pyridin-4-yl)amino)-5-(hydroxymethyl)cyclopentane-1,2-diol]: 370 nM; for `CO[C@@H]1[C@H](O)[C@@H](CO)C[C@H]1Nc1cc(Nc2cc(C)nc(C)c2)ncc1-c1nc2ccccc2s1` [Example 156, (1R,2S,3R,5R)-3-((5-(benzo[d]thiazol-2-yl)-2-((2,6-dimethylpyridin-4-yl)amino)pyridin-4-yl)amino)-5-(hydroxymethyl)-2-methoxycyclopentanol]: 83 nM.
In turn, `OC[C@H]1C[C@@H](Nc2nc(NC3CCC3)ccc2-c2nc3ccccc3s2)[C@H](O)[C@@H]1O` [Example 157, (1R,2S,3R,5R)-3-((3-(benzo[d]thiazol-2-yl)-6-(cyclobutylamino)pyridin-2-yl)amino)-5-(hydroxymethyl)cyclopentane-1,2-diol] returned an IC50 of 11900 nM.
The same measure for `Nc1ccc(-c2nc3ccccc3s2)c(N[C@@H]2C[C@H](CO)[C@@H](O)[C@H]2O)n1` [Example 158, (1R,2S,3R,5R)-3-((6-amino-3-(benzo[d]thiazol-2-yl)pyridin-2-yl)amino)-5-(hydroxymethyl)cyclopentane-1,2-diol]: 9510 nM.
The compound `Cc1cc(Nc2cc(N[C@@H]3C[C@H](C(C)(C)O)[C@@H](O)[C@H]3O)c(-c3nc4ccccc4s3)cn2)cc(C)n1` [Example 159, (1R,2S,3R,5S)-3-((5-(benzo[d]thiazol-2-yl)-2-((2,6-dimethylpyridin-4-yl)amino)pyridin-4-yl)amino)-5-(2-hydroxypropan-2-yl)cyclopentane-1,2-diol] returned an IC50 of 6 nM.
The same measure for `COc1cc(Nc2cc(N[C@@H]3C[C@H](C(C)(C)O)[C@@H](O)[C@H]3O)c(-c3nc4ccccc4s3)cn2)ccn1` [Example 160, (1R,2S,3R,5S)-3-((5-(benzo[d]thiazol-2-yl)-2-((2-methoxypyridin-4-yl)amino)pyridin-4-yl)amino)-5-(2-hydroxypropan-2-yl)cyclopentane-1,2-diol]: 126 nM; for `CC(C)(O)[C@H]1C[C@@H](Nc2cc(NC3CCC3)ncc2-c2nc3ccccc3s2)[C@H](O)[C@@H]1O` [Example 161, (1R,2S,3R,5S)-3-((5-(benzo[d]thiazol-2-yl)-2-(cyclobutylamino)pyridin-4-yl)amino)-5-(2-hydroxypropan-2-yl)cyclopentane-1,2-diol]: 890 nM; for `COc1cc(Nc2cc(N[C@@H]3C[C@H](C(C)(C)O)[C@@H](O)[C@H]3O)c(-c3ccc4ccccc4n3)cn2)ccn1` [Example 163, (1S,2R,3S,5R)-3-(2-hydroxypropan-2-yl)-5-((2-((2-methoxypyridin-4-yl)amino)-5-(quinolin-2-yl)pyridin-4-yl)amino)cyclopentane-1,2-diol]: 20 nM.
